Reference: ChEMBL document CHEMBL1147226, “dd-diketopiperazines: antibiotics active against Vibrio anguillarum isolated from marine bacteria associated with cultures of Pecten maximus” (2003)
In brackets after ≈: the same amount, converted by molar mass.

System: Vibrio anguillarum
Assay: Antimicrobial activity against Vibrio anguillarum after 24 to 48 hrs
Type: functional

| Compound | MIC [µg/mL] |
| --- | --- |
| O=C1N[C@H](Cc2ccccc2)C(=O)N2CCC[C@H]12 | 0.03 (≈ 0.123 µM) |
| CC(C)C[C@H]1NC(=O)[C@@H](C(C)C)NC1=O | 0.05 (≈ 0.236 µM) |
| CC[C@@H](C)[C@@H]1NC(=O)[C@H]2CCCN2C1=O | 0.12 (≈ 0.571 µM) |
| CC(C)C[C@H]1NC(=O)[C@@H]2CCCN2C1=O | 0.12 (≈ 0.571 µM) |
| CC(C)C[C@H]1NC(=O)[C@@H](Cc2cnc[nH]2)NC1=O | 0.07 (≈ 0.28 µM) |
| O=C1N[C@H](Cc2ccccc2)C(=O)N2C[C@H](O)C[C@H]12 | 0.07 (≈ 0.269 µM) |
| O=C1N[C@H](Cc2ccccc2)C(=O)N2CCC[C@@H]12 | 0.13 (≈ 0.532 µM) |
| CC(C)C[C@@H]1NC(=O)[C@H]2CCCN2C1=O | 0.13 (≈ 0.618 µM) |
| CC(C)C[C@H]1NC(=O)[C@H]2CCCN2C1=O | 0.04 (≈ 0.19 µM) |
| O=C1N[C@@H](Cc2ccccc2)C(=O)N2CCC[C@H]12 | 0.1 (≈ 0.409 µM) |

Further lines, results first:

| MIC [µg/mL] | Compound |
| --- | --- |
| 0.14 (≈ 0.713 µM) | CC(C)[C@H]1NC(=O)[C@@H]2CCCN2C1=O |
| 0.05 (≈ 0.238 µM) | CC[C@@H](C)[C@H]1NC(=O)[C@H]2CCCN2C1=O |
| 0.05 (≈ 0.255 µM) | CC(C)[C@H]1NC(=O)[C@H]2CCCN2C1=O |
| 0.11 (≈ 0.523 µM) | CC[C@@H](C)[C@H]1NC(=O)[C@@H]2CCCN2C1=O |
| 0.11 (≈ 0.561 µM) | CC(C)[C@@H]1NC(=O)[C@H]2CCCN2C1=O |
